In patent publication US6506765B2 (TAP Pharmaceutical Products, Inc., priority 2000, dated 2003):
pKi: −log10 of the molar value. Read-outs that look alike come from different tables or passages of the source.

Assays:
[1] = biological target: Adrenergic α2C (Homo sapiens, UniProt P18825); test: biochemical
Procedure: (§1) Routine radioligand binding assays were performed using reference standards according to established methodology. IC50 values were determined by a non-linear least square regression analysis.

[2] = biological target: Serotonin 5-HT2A (Homo sapiens, UniProt P28223); test: radioligand binding assay, Serotonin 5-HT2A
Procedure: as §1

[3] = biological target: Serotonin 5-HT7 (Homo sapiens, UniProt P34969); test: radioligand binding assay, Serotonin 5-HT7
Procedure: as §1

[4] = biological target: Adrenergic α2A (Homo sapiens, UniProt P08913); test: radioligand binding assay, Adrenergic α2A
Procedure: as §1

[5] = biological target: Serotonin 5-HT2; test: radioligand binding assay, Serotonin 5-HT2
[6] = biological target: Serotonin 5-HT1B (Homo sapiens, UniProt P28222); test: radioligand binding assay, Serotonin 5-HT1B
[7] = biological target: Serotonin 5-HT6 (Homo sapiens, UniProt P50406); test: radioligand binding assay, Serotonin 5-HT6
[8] = biological target: Serotonin 5-HT1D (Homo sapiens, UniProt P28221); test: radioligand binding assay, Serotonin 5-HT1D
Procedure: as §1

[9] = biological target: Adrenergic α1A (Homo sapiens, UniProt P35348); test: radioligand binding assay, Adrenergic α1A
Procedure: as §1

[10] = biological target: Adrenergic α1B (Homo sapiens, UniProt P35368); test: radioligand binding assay, Adrenergic α1B
[11] = biological target: Opiate μ (Homo sapiens, UniProt P35372); test: radioligand binding assay, Opiate μ
Procedure: as §1

[12] = test system: dopamine D4.2; test: radioligand binding assay, dopamine D4.2
Procedure: as §1

[13] = biological target: dopamine D4.4 (Homo sapiens, UniProt P21917); test: radioligand binding assay, dopamine D4.4
Procedure: as §1

[14] = test system: dopamine D4.7; test: radioligand binding assay, dopamine D4.7
Procedure: as §1

[15] = biological target: serotonin 5-HT4 (Homo sapiens, UniProt Q13639); test: radioligand binding assay, serotonin 5-HT4
[16] = biological target: adrenergic β1 (Homo sapiens, UniProt P08588); test: radioligand binding assay, adrenergic β1
Procedure: as §1

[17] = biological target: adrenergic β2 (Homo sapiens, UniProt P07550); test: radioligand binding assay, adrenergic β2
Procedure: as §1

[18] = biological target: adrenergic β3 (Homo sapiens, UniProt P13945); test: radioligand binding assay, adrenergic β3
Procedure: as §1

[19] = biological target: opiate δ (Homo sapiens, UniProt P41143); test: radioligand binding assay, opiate δ
Procedure: as §1

[20] = biological target: opiate κ (Homo sapiens, UniProt P41145); test: radioligand binding assay, opiate κ
Procedure: as §1

[21] = biological target: tachykinin NK1 (Homo sapiens, UniProt P25103); test: radioligand binding assay, tachykinin NK1
[22] = biological target: tachykinin NK2 (Homo sapiens, UniProt P21452); test: radioligand binding assay, tachykinin NK2
[23] = biological target: tachykinin NK3 (Homo sapiens, UniProt P29371); test: radioligand binding assay, tachykinin NK3
[24] = biological target: neuropeptide Y NPY1 (Homo sapiens, UniProt P25929); test: radioligand binding assay, neuropeptide Y NPY1
Procedure: as §1

[25] = biological target: neuropeptide Y NPY2 (Homo sapiens, UniProt P49146); test: radioligand binding assay, neuropeptide Y NPY2
Procedure: as §1

[26] = biological target: calcitonin gene related peptide (CGRP) (Homo sapiens, UniProt O60894+Q16602); test: radioligand binding assay, CGRP
[27] = biological target: vasoactive intestinal peptide (VIP1) (Homo sapiens, UniProt P32241); test: radioligand binding assay, VIP1
[28] = biological target: muscarinic M2 (Homo sapiens, UniProt P08172); test: radioligand binding assay, muscarinic M2
Procedure: as §1

[29] = biological target: muscarinic M3 (Homo sapiens, UniProt P20309); test: radioligand binding assay, muscarinic M3
Procedure: as §1

[30] = biological target: muscarinic M4 (Homo sapiens, UniProt P08173); test: radioligand binding assay, muscarinic M4
[31] = biological target: muscarinic M5 (Homo sapiens, UniProt P08912); test: radioligand binding assay, muscarinic M5
[32] = test system: nicotinic; test: radioligand binding assay, nicotinic
[33] = test system: gamma aminobutyric acid GABAA; test: radioligand binding assay, GABAA
[34] = biological target: gamma aminobutyric acid GABAB (Homo sapiens, UniProt Q9UBS5); test: radioligand binding assay, GABAB
[35] = test system: nitric oxide synthetase; test: activity of nitric oxide synthetase; type: biochemical
[36] = biological target: Dopamine D3 (Homo sapiens, UniProt P35462); test: radioligand binding assay, Dopamine D3
Procedure: as §1

[37] = biological target: Adrenergic α2B (Homo sapiens, UniProt P18089); test: radioligand binding assay, Adrenergic α2B
Procedure: as §1

[38] = biological target: Dopamine D2S (Homo sapiens, UniProt P14416); test: radioligand binding assay, Dopamine D2S
Procedure: as §1

[39] = biological target: Serotonin 5-HT1A (Homo sapiens, UniProt P08908); test: radioligand binding assay, Serotonin 5-HT1A
Procedure: as §1

[40] = biological target: muscarinic M1 (Homo sapiens, UniProt P11229); test: radioligand binding assay, muscarinic M1
Procedure: as §1

Chain of serotonin 5-HT4 (Q13639 whole entry): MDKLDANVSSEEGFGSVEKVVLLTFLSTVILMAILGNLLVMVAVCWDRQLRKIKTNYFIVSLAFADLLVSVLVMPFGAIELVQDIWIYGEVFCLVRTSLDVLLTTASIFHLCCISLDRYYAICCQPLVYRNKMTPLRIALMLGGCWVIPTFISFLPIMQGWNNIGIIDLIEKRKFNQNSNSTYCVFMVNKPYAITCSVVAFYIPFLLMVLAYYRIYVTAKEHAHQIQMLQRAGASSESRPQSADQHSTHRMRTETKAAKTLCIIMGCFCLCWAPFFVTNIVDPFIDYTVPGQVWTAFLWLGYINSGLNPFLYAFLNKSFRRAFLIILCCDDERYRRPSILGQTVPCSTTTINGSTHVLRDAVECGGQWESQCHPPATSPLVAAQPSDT
Chain of muscarinic M4 (P08173 whole entry): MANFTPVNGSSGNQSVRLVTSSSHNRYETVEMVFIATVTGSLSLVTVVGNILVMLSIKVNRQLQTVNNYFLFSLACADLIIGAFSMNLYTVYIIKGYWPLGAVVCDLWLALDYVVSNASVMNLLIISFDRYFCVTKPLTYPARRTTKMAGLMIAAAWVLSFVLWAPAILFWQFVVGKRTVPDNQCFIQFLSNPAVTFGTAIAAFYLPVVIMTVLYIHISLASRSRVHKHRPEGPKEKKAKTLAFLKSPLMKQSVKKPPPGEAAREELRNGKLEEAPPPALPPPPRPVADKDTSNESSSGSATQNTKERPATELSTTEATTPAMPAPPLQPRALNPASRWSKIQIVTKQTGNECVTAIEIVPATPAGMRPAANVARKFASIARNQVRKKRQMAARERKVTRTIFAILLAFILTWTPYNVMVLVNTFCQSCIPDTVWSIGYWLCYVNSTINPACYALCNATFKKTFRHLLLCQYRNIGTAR
Chain of Serotonin 5-HT2A (P28223 whole entry): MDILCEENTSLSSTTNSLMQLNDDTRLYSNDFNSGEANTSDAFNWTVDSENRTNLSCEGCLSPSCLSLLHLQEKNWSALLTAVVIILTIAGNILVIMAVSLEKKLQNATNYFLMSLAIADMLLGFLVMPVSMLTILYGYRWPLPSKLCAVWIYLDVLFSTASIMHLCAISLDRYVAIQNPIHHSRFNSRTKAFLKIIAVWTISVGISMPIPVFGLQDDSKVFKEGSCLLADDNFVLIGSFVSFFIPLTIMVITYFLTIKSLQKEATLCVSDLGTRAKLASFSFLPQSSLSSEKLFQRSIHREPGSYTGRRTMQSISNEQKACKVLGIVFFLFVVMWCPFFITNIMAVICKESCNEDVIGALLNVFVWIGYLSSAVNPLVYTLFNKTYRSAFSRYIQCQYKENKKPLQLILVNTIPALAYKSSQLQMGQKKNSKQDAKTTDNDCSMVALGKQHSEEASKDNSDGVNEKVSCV
Chain of adrenergic β2 (P07550 whole entry): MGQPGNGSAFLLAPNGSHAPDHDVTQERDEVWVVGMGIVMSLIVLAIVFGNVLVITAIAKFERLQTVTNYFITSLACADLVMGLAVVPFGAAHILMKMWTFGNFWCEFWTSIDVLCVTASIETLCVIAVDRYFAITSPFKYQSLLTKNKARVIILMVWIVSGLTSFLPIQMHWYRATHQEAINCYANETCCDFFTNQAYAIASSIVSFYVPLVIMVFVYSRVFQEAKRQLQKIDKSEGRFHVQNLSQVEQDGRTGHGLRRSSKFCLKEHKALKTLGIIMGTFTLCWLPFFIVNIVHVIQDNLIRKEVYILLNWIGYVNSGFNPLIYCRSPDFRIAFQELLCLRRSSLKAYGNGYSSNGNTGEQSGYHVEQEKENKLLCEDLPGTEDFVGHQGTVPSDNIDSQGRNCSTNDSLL
Chain of muscarinic M5 (P08912 whole entry): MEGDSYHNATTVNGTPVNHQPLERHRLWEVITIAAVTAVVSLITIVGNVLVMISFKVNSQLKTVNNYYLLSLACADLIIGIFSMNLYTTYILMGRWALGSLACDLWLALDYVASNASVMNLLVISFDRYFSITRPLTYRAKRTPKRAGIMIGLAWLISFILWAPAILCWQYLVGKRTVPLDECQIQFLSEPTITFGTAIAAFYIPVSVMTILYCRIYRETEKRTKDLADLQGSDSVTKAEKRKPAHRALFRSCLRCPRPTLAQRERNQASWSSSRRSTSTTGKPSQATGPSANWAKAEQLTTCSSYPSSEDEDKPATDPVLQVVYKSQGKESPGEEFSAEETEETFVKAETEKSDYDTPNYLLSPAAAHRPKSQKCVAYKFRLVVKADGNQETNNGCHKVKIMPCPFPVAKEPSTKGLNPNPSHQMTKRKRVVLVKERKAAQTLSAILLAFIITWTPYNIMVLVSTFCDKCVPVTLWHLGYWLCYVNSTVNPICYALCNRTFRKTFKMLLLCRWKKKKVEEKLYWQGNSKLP
Chain of Adrenergic α1A (P35348 whole entry): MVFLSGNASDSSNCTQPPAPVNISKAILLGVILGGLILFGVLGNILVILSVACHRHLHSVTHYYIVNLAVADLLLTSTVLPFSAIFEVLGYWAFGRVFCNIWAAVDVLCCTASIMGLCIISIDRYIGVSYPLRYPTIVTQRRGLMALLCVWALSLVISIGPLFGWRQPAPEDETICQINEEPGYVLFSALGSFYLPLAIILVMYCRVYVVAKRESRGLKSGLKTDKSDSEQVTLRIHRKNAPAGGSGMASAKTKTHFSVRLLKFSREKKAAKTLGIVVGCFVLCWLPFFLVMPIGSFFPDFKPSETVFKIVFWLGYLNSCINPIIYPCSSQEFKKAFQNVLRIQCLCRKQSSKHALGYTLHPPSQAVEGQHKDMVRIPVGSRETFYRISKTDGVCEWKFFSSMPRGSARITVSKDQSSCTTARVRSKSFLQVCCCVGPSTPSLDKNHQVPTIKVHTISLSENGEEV
Chain of adrenergic β3 (P13945 whole entry): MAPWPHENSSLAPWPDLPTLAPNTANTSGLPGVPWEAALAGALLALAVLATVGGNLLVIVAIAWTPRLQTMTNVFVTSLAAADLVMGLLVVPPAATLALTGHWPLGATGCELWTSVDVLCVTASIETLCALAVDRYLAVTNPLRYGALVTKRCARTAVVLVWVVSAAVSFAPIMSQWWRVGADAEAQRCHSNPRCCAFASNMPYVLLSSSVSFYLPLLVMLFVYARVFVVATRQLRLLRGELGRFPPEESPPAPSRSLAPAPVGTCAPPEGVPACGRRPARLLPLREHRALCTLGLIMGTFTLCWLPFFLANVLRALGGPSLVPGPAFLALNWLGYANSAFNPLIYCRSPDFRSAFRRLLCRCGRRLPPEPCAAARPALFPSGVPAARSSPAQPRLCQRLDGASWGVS
Chain of calcitonin gene related peptide (CGRP) (Q16602 23-461): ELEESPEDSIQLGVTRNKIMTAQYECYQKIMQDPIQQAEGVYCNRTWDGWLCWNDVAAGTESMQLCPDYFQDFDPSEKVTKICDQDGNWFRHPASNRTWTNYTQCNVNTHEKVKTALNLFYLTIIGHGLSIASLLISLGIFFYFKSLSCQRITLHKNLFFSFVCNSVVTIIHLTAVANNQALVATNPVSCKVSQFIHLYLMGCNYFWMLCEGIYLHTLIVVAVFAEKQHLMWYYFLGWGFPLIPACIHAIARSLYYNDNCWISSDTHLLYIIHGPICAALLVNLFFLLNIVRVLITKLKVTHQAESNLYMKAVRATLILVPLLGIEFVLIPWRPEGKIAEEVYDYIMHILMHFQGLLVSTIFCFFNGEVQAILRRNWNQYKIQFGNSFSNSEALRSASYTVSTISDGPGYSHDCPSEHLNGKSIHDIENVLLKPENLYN
Chain of calcitonin gene related peptide (CGRP) (O60894 27-148 partner): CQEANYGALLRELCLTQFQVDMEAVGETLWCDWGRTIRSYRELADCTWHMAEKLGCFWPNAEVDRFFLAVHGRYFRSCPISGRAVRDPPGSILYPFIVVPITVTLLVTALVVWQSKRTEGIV
Chain of muscarinic M3 (P20309 whole entry): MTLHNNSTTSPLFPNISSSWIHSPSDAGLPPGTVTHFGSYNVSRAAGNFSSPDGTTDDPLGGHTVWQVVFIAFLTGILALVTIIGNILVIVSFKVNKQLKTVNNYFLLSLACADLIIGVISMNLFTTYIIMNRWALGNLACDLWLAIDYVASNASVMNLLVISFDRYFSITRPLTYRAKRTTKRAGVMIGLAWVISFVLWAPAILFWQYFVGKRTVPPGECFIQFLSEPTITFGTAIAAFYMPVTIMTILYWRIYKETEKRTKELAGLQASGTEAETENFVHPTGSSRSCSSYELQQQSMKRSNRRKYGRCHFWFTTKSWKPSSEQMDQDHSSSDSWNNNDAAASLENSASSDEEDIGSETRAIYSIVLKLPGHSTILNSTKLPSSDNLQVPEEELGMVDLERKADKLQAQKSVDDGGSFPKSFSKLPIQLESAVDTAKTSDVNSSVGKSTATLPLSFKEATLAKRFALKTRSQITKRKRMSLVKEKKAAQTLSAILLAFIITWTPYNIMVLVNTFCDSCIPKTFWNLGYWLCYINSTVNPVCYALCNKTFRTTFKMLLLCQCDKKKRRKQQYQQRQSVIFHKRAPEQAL
Chain of tachykinin NK1 (P25103 whole entry): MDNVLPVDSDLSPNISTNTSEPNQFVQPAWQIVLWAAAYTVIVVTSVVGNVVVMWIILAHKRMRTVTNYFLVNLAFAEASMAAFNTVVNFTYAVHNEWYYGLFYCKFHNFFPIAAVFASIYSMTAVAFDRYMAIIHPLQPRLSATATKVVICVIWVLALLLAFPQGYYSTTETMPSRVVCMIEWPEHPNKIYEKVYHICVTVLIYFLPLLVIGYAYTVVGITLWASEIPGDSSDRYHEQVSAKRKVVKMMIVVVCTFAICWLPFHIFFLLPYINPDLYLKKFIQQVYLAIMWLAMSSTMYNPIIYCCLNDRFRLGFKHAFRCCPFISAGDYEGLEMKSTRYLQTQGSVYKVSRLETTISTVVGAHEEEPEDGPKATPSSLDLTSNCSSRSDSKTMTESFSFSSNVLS

Row | SMILES | pKi [6] | pKi [7] | pKi [9] | binding activity [12] | binding activity [13] | binding activity [14] | binding activity [15] | binding activity [16] | binding activity [17] | binding activity [18] | binding activity [21] | binding activity [22] | binding activity [23] | binding activity [24] | binding activity [25] | binding activity [26] | binding activity [27] | binding activity [28] | binding activity [29] | binding activity [30] | further results
1 | CN1CCc2cccc3c2[C@H]1Cc1ccc(O)c(O)c1-3 [Apomorphine, (R)-5,6,6a,7-tetrahydro-6-methyl-4H-dibenzo-[de,g]quinoline-10,11-diol] | 6.69 | 6.69 | 6.46 | No significant binding activity | No significant binding activity | No significant binding activity | No significant binding activity | No significant binding activity | No significant binding activity | No significant binding activity | No significant binding activity | No significant binding activity | No significant binding activity | No significant binding activity | No significant binding activity | No significant binding activity | No significant binding activity | No significant binding activity | No significant binding activity | No significant binding activity | pKi [1]: 7.72; pKi [2]: 7.57; pKi [3]: 7.19; pKi [4]: 7.15; pKi ([5]; read-out: Ki): 6.95; pKi [8]: 6.54; pKi [10]: 6.05; binding activity [11]: No significant binding activity; binding activity [19]: No significant binding activity; binding activity [20]: No significant binding activity; binding activity [31]: No significant binding activity; binding activity [32]: No significant binding activity; binding activity [33]: No significant binding activity; binding activity [34]: No significant binding activity; effect on the activity of nitric oxide synthetase [35]: neither apomorphine nor its metabolite norapomorphine demonstrated any significant effect
2 | Oc1ccc2c(c1O)-c1cccc3c1C(C2)NCC3 (stereo not shown) [Norapomorphine, norapomorphine] | 5.45 | 5.78 | 5.38 | did not bind significantly | did not bind significantly | did not bind significantly | did not bind significantly | did not bind significantly | did not bind significantly | did not bind significantly | did not bind significantly | did not bind significantly | did not bind significantly | did not bind significantly | did not bind significantly | did not bind significantly | did not bind significantly | did not bind significantly | did not bind significantly | did not bind significantly | pKi [36]: 6.93; pKi [37]: 6.67; pKi [38]: 5.96; pKi ([2]; Serotonin 5-HT2A, read-out: Ki): 5.95; pKi [39]: 6.36; pKi ([3]; Serotonin 5-HT7, read-out: Ki): 5.86; pKi ([4]; Adrenergic α2A, read-out: Ki): 5.84; Ki [5]: N/S (N/S = no significant activity (≧50% at 10 μM)); pKi [11]: 5.68; binding activity [40]: did not bind significantly; binding activity [31]: did not bind significantly; binding activity [32]: did not bind significantly; binding activity [33]: did not bind significantly; binding activity [34]: did not bind significantly; effect on the activity of nitric oxide synthetase [35]: neither apomorphine nor its metabolite norapomorphine demonstrated any significant effect
